Laboratory results taken from patent US12060349B2, “Glucosylceramide synthase inhibitors” (Genzyme Corporation, priority 2012, dated 2024).
Where two headings read alike, the source gives them in different places.

What was measured:
[1] = molecular target: T1, glucosylceramide synthase (Homo sapiens, UniProt Q16739); assay: microsomal assay measuring conversion of ceramide to glucosylceramide by HPLC (GCS IC50); assay type: biochemical; conditions: concentration causing 50% inhibition of glucosylceramide synthase activity
T1 construct: Microsomes were isolated from A375 human melanoma cells; endogenous in cells; host or cells: A375 human melanoma cells (microsomal fraction, 100,000 g pellet)
T1 sequence (Q16739 1-394): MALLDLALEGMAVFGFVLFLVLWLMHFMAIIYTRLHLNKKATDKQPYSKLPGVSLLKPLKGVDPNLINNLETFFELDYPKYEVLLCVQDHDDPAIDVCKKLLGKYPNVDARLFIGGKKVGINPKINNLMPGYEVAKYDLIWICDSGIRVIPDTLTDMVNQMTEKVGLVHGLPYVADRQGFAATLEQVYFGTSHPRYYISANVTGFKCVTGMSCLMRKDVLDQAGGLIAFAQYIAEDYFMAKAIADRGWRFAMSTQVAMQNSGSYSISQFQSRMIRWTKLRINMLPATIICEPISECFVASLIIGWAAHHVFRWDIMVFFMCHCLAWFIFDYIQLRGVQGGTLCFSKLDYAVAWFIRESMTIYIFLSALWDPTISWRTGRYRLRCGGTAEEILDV
Protocol: Inhibition of glucosylceramide synthase activity for certain compounds of the invention were measured with 1) a microsomal assay that directly measures the conversion of ceramide to glucosylceramide by HPLC and 2) second, cell based, phenotypic assay that monitors cell surface expression of the downstream lipid GM3 by antibody mediated immunofluorescence. The cell based assay was performed in two different cell types, B16 and C32. Cell viability was also assessed in the second, cell-based assay.
The “Compound Number” in the table corresponds to the compound disclosed in the Example of the same number. The results of the microsomal assay are expressed as “GCS IC50”, which represents the concentration of the compound causing 50% inhibition of glucosylceramide synthase activity. The results of the cell based assays (performed in two different cell systems, i.e. B16 mouse melanoma or C32 human melanoma cells) are expressed as “GM3 B16 IC50” or “GM3 C32 IC50” for the B16 assay and the C32 assay, respectively. These values represent the concentration of the compound causing 50% inhibition of GM3 expression on the cell surface. The results of the viability assays are expressed as “Viability, B16 IC50” or “Viability, C32 IC50”, respectively. These values represent the concentration of the compound causing 50% cell death. Values greater than 10 represent a lack of cell death.

[2] = tested on: B16 mouse melanoma cells; assay: cell viability in the B16 cell-based assay (Viability, B16 IC50); conditions: concentration causing 50% cell death, values greater than 10 represent a lack of cell death, read-out: Viability, B16 IC50
Protocol: (§1) The cell based assay was performed in two different cell types, B16 and C32. Cell viability was also assessed in the second, cell-based assay.
(§2) The “Compound Number” in the table corresponds to the compound disclosed in the Example of the same number. […] The results of the cell based assays (performed in two different cell systems, i.e. B16 mouse melanoma or C32 human melanoma cells) are expressed as “GM3 B16 IC50” or “GM3 C32 IC50” for the B16 assay and the C32 assay, respectively. […] The results of the viability assays are expressed as “Viability, B16 IC50” or “Viability, C32 IC50”, respectively. These values represent the concentration of the compound causing 50% cell death. Values greater than 10 represent a lack of cell death.

[3] = tested on: GM3 expression on the cell surface, C32 human melanoma cells; assay: cell based phenotypic assay, cell surface GM3 by antibody mediated immunofluorescence, C32 (GM3 C32 IC50); conditions: 50% inhibition of GM3 expression on the cell surface
Protocol: as §1, §2

[4] = tested on: C32 human melanoma cells; assay: cell viability in the C32 cell-based assay (Viability, C32 IC50)
Protocol: as §1, §2

[5] = tested on: GM3 expression on the cell surface, B16 mouse melanoma cells; assay: cell based phenotypic assay, cell surface GM3 by antibody mediated immunofluorescence, B16 (GM3 B16 IC50); conditions: 50% inhibition of GM3 expression on the cell surface
Protocol: as §1, §2

[6] = Homo sapiens, C32 human melanoma cells, read-out: GM3 C32 IC50
[7] = Homo sapiens, C32, C32 cells; concentration causing 50% cell death; values greater than 10 represent a lack of cell death; read-out: Viability, C32 IC50
[8] = Mus musculus, B16 mouse melanoma cells, read-out: GM3 B16 IC50
[9] = C32 human melanoma cells, read-out: GM3 C32 IC50
[10] = B16 mouse melanoma cells, read-out: GM3 B16 IC50

| SMILES | IC50 [1] [nM] | IC50 ([2]; Mus musculus, B16, B16 cells) [nM] | IC50 [3, 6] [nM] | IC50 [4, 7] [nM] | IC50 [5, 8] [nM] | IC50 ([2]; B16 cells) [nM] | IC50 [3, 9] [nM] | IC50 ([4]; C32 cells; concentration causing 50% cell death; values greater than 10 represent a lack of cell death; read-out: Viability, C32 IC50) [nM] | IC50 [5, 10] [nM] | IC50 ([3]; Homo sapiens, read-out: GM3 C32 IC50, C32 human melanoma cells) [nM] | IC50 ([4]; read-out: Viability, C32 IC50; C32 cells; concentration causing 50% cell death; values greater than 10 represent a lack of cell death) [nM] | IC50 ([5]; Mus musculus, read-out: GM3 B16 IC50, B16 mouse melanoma cells) [nM] |
| --- | --- | --- | --- | --- | --- | --- | --- | --- | --- | --- | --- | --- |
| CC1(NC(=O)C2CCN(c3cc(-c4ccc(F)cc4)ccn3)CC2)CCN2CCC1CC2 (centres unmarked) [Example 106, 1-(4-(4-Fluorophenyl)pyridin-2-yl)-N-(4-methyl-1-azabicyclo[3.2.2]nonan-4-yl)piperidine-4-carboxamide] | 0.858 | 6970 | 0.095 | 9020 | 15.3 | – | – | – | – | – | – | – |
| O=C(N1CCN(c2ccc(-c3ccccc3)cc2)CC1)N1CCN2CCC1CC2 [Example 5, (4-([1,1′-Biphenyl]-4-yl)piperazin-1-yl)(1,4-diazabicyclo[3.2.2]nonan-4-yl)methanone] | 30000 | 2000 | 2000 | 2000 | 2000 | – | – | – | – | – | – | – |
| COCCCOc1cnc(-c2ccc(C(C)(C)NC(=O)N3CCN4CCC3CC4)cc2)cn1 [Example 322, N-(2-(4-(5-(3-methoxypropoxy)pyrazin-2-yl)phenyl)propan-2-yl)-1,4-diazabicyclo[3.2.2]nonane-4-carboxamide] | 1070 | ≥ 10000 | 99.9 | 1000 | 1440 | – | – | – | – | – | – | – |
| CC1(NC(=O)C2(F)CCN(c3ncnc(OCc4ccc(F)cc4)n3)CC2)CCN2CCC1CC2 (centres unmarked) [Example 128, 4-Fluoro-1-(4-((4-fluorobenzyl)oxy)-1,3,5-triazin-2-yl)-N-(4-methyl-1-azabicyclo[3.2.2]nonan-4-yl)piperidine-4-carboxamide] | 19.8 | ≥ 10000 | 3.4 | 1000 | 654 | – | – | – | – | – | – | – |
| COCCOCc1ccc(-c2nc(N3CCC(F)(C(=O)NC4(C)CCN5CCC4CC5)CC3)ncc2F)cc1 (single isomer, unassigned) [Example 79, 4-Fluoro-1-(5-fluoro-4-(4-((2-methoxyethoxy)methyl)phenyl)pyrimidin-2-yl)-N-(4-methyl-1-azabicyclo[3.2.2]nonan-4-yl)piperidine-4-carboxamide] | 1.8 | – | – | – | – | 4280 | 0.191 | 215 | 109 | – | – | – |
| COCCOCc1ccc(-c2ccc(C(C)(C)NC(=O)NC3(C)CN4CCC3CC4)cc2)cc1 (centres unmarked) [Example 198, 1-(2-(4′-((2-Methoxyethoxy)methyl)-[1,1′-biphenyl]-4-yl)propan-2-yl)-3-(3-methylquinuclidin-3-yl)urea] | 25.2 | ≥ 10000 | 3.24 | ≥ 10000 | 118 | – | – | – | – | – | – | – |
| CC(C)(C)CCS(=O)(=O)c1ccc(-c2ccc(C(C)(C)NC(=O)NC3(C)CN4CCC3CC4)cc2)cc1 (centres unmarked) [Example 246, 1-(2-(4′-((3,3-Dimethylbutyl)sulfonyl)-[1,1′-biphenyl]-4-yl)propan-2-yl)-3-(3-methylquinuclidin-3-yl)urea] | 1.7 | ≥ 10000 | 0.624 | 1000 | 11.4 | – | – | – | – | – | – | – |
| CC(C)c1cccc(N2CCN(C(=O)NC3(C)CCN4CCC3CC4)CC2)c1 (centres unmarked) [Example 28, 4-(3-Isopropylphenyl)-N-(4-methyl-1-azabicyclo[3.2.2]nonan-4-yl)piperazine-1-carboxamide] | 1590 | ≥ 10000 | 86.6 | 3160 | 1440 | – | – | – | – | – | – | – |
| CCC1(NC(=O)NC2(c3ccc(-c4ccc(COCCOC)cc4)cc3)CC2)CN2CCC1CC2 (centres unmarked) [Example 206, 1-(3-Ethylquinuclidin-3-yl)-3-(1-(4′-((2-methoxyethoxy)methyl)-[1,1′-biphenyl]-4-yl)cyclopropyl)urea] | 27.8 | ≥ 10000 | 2.66 | 1780 | 59.6 | – | – | – | – | – | – | – |
| CC1(NC(=O)C2CCN(c3nccc(-c4ccc(F)cc4)n3)CC2)CCN2CCC1CC2 (single isomer, unassigned) [Example 42, 1-(4-(4-Fluorophenyl)pyrimidin-2-yl)-N-(4-methyl-1-azabicyclo[3.2.2]nonan-4-yl)piperidine-4-carboxamide] | 94.1 | 7660 | – | 4640 | – | – | 9.82 | – | 918 | – | – | – |
| CC1(NC(=O)C2CN(c3cccc(-c4ccc(F)cc4)c3)C2)CCN2CCC1CC2 (centres unmarked) [Example 114, 1-(4′-Fluoro-[1,1′-biphenyl]-3-yl)-N-(4-methyl-1-azabicyclo[3.2.2]nonan-4-yl)azetidine-3-carboxamide] | 51 | 3460 | 11.1 | 1000 | 272 | – | – | – | – | – | – | – |
| COCCOc1ccc(-c2ccnc(N3CCC(F)(C(=O)NC4(C)CN5CCC4CC5)CC3)n2)cc1 (centres unmarked) [Example 85, 4-Fluoro-1-(4-(4-(2-methoxyethoxy)phenyl)pyrimidin-2-yl)-N-(3-methylquinuclidin-3-yl)piperidine-4-carboxamide] | 10.5 | ≥ 10000 | 0.389 | 316 | 79.9 | – | – | – | – | – | – | – |
| COCCCOc1ccc(-c2ccnc(N3CCC(C(=O)NC4CN5CCC4CC5)CC3)n2)cc1 (centres unmarked) [Example 72, 1-(4-(4-(3-Methoxypropoxy)phenyl)pyrimidin-2-yl)-N-(quinuclidin-3-yl)piperidine-4-carboxamide] | 1.16 | 8630 | 0.26 | 464 | 79.5 | – | – | – | – | – | – | – |
| CCC1(NC(=O)NC2(c3ccc(-c4ccc(CCCOC)cc4)cc3)CC2)CN2CCC1CC2 (centres unmarked) [Example 215, 1-(3-Ethylquinuclidin-3-yl)-3-(1-(4′-(3-methoxypropyl)-[1,1′-biphenyl]-4-yl)cyclopropyl)urea] | 2.48 | 7550 | 0.542 | ≥ 10000 | 16.2 | – | – | – | – | – | – | – |
| CC(C)(NC(=O)NC1(C)CCN2CCC1CC2)c1cccc(Oc2cccc(C(=O)N3CCOCC3)c2)c1 (centres unmarked) [Example 276, 1-(4-Methyl-1-azabicyclo[3.2.2]nonan-4-yl)-3-(2-(3-(3-(morpholine-4-carbonyl)phenoxy)phenyl)propan-2-yl)urea] | 20 | ≥ 10000 | 29.6 | 3160 | 1530 | – | – | – | – | – | – | – |
| O=C(NC1CN2CCC1CC2)C1(F)CCN(c2nccc(-c3ccc(OCCF)cc3)n2)CC1 (centres unmarked) [Example 87, 4-Fluoro-1-(4-(4-(2-fluoroethoxy)phenyl)pyrimidin-2-yl)-N-(quinuclidin-3-yl)piperidine-4-carboxamide] | 1.91 | 8910 | 0.177 | 215 | 64.3 | – | – | – | – | – | – | – |
| CCC1(NC(=O)NC(C)(C)c2ccc(-c3ccc(C(=O)N4CCCCC4)cc3)cc2)CN2CCC1CC2 (centres unmarked) [Example 264, 1-(3-Ethylquinuclidin-3-yl)-3-(2-(4′-(piperidine-1-carbonyl)biphenyl-4-yl)propan-2-yl)urea] | 13.7 | ≥ 10000 | 2.13 | 1000 | 67.4 | – | – | – | – | – | – | – |
| CCOc1ccc(-c2cccc(C(C)(C)NC(=O)OC3CN4CCC3CC4)c2)nn1 (centres unmarked) [Example 318, Quinuclidin-3-yl (2-(3-(6-ethoxypyridazin-3-yl)phenyl)propan-2-yl)carbamate] | 1460 | – | – | – | – | – | – | – | – | 69.9 | 1000 | 635 |
